Experimental data reported in US8946291B2, “Compositions and methods for treating pigmentary conditions and melanoma” (The United States of America, as represented by the …, priority 2008, dated 2015).

Legend:
SOX9 [1] = assay: SOX9 protein expression in normal human melanocytes (metabolic labeling, immunoblotting, immunocytochemistry); assay type: cell-based; details: for SOX9 regulation in human melanocytes: statement in the discussion
Experimental: Cultures in 100 mm dishes were solubilized in […] mammalian protein extraction reagent (Pierce Biotechnology, Rockford, Ill., USA) and Protease Inhibitor cocktail (Roche, Mannheim, Germany). Protein concentrations of extracts were measured using the BCA protein assay kit (Pierce, Rockford, Ill., USA). Cell extracts (20 μg) were separated on 8-16% gradient SDS polyacrylamide gels (Invitrogen). After electrophoresis, proteins were transferred electrophoretically from the gels to Invitrolon PVDF transfer membranes (Invitrogen). The filters were incubated with antibodies to SOX9 (rabbit 1:500; Abeam, Cambridge, UK), SOX10 (goat 1:200; Santa Cruz, Santa Cruz, Calif., USA), DCT (1:2,000; (22)), Tyrosinase (rabbit 1:10,000; (22)), or GAPDH (rabbit 1:10,000, Santa Cruz) for 1 h at 23° C. to overnight at 4° C. (depending on the antibody) and were then incubated with horseradish peroxidase-linked anti-rabbit, anti-mouse or anti-goat whole antibodies (at 1:1,0000, GE Healthcare, Buckinghamshire, UK) at room temperature for 1 h. Antigens were detected using ECL-plus Western Blotting Detection System (GE Healthcare). Blots were quantitated using Scion Image Software (Scion Corp., Frederick, Md., USA). Each experiment was performed at least in triplicate.
Melanocyte cultures in two well Lab-Tek chamber slides (Nalge Nune International Corp., Naperville, Ill., USA) were processed for indirect fluorescence to detect the expression of proteins using primary antibodies to SOX9 (rabbit 1:50, Abcam), MITF-ab3 (mouse 1:100 dilution; NeoMarkers, Fremont, Calif., USA), DCT (rabbit 1:7,500; (22)) and Tyrosinase (rabbit 1:700; (22)). Bound antibodies were visualized with appropriate secondary antibodies, Alexa Fluor® 488 goat anti-rabbit IgG (H+L) (Molecular Probes, Inc., Eugene, Oreg., USA), Alexa Fluor® 594 mouse anti-rabbit IgG (H+L) (Molecular Probes), Alexa Fluor® 488 goat anti-mouse IgG (H+L) (Molecular Probes) or Alexa Fluor® 594 goat anti-mouse IgG (H+L) (Molecular Probes) at 37° C. for 30 min at 1:500 dilution with 5% goat serum. DAPI (Vector, Burlingame, Calif.; USA) was used as a counter-stain. The green fluorescence produced by Alexa 488®, red produced by Alexa 594®, and blue by DAPI was observed and captured using a Leica DMR B/D MLD fluorescence microscope (Leica, Wetzlar, Germany) and a Dage-MTI 3CCD 3-chip color video camera (Dage-MTI, Michigan City, Ind., USA).
Radioactive metabolic labeling and immunoprecipitation was performed as described previously (58). Where indicated, cells were irradiated with 21 mJ/cm^2 UVB and/or chemical agents were added from the “pulse” period to the “chase” period. Cell extracts were incubated with normal rabbit serum (Vector, Burlingame, Calif., USA) and were then incubated with protein G beads (GE Healthcare). The supernatants were incubated with SOX9 (Abcam) or GAPDH (Santa-Cruz) antibodies. The immune-complexes were separated by incubation with beads and were further washed with immunoprecipitate lysis buffer. The pellets were eluted, electrophoresed and visualized by autoradiography.

melanoma cells = details: literature (14-17); cited from earlier work
TYR promoter = assay: Luciferase assay of TYR promoter in HeLa cells; assay type: cell-based, human; details: forskolin (data not shown)
Experimental: (§1) B16 melanoma cells or HeLa cells were seeded in 24-well dishes and were transfected with 0.3 μg of the luciferase reporter plasmid and 0.05 μg of pCMVβGal (Promega, Madison, Wis., USA) to control the variability of transfection efficiency. In some experiments, SOX9 was over-expressed using 0.1 μg of the pcDNA3 encoding SOX9, or was silenced with SOX9 siRNA (100 nM). Empty pcDNA3 or siRNA scrambles were used as controls depending on the experiments. All transfections were made with Lipofectamine (Invitrogen) according to the instructions of the manufacturer. Thirty-six h later, cells were washed with a saline phosphate buffer and lysed with reporter lysis buffer (Promega). Soluble extracts were harvested and assayed for luciferase and β-galactosidase activities. All transfections were repeated at least 3 times using different plasmid preparations and gave similar results. The pMITF wild-type and mutants, pDCT, pTYR, and pCRE constructs used were described previously (26, 43, 59).

DCT promoter = assay: Luciferase assay of DCT promoter in HeLa cells; assay type: cell-based, human; details: forskolin (data not shown)
Experimental: as §1

SOX9 [2] = details: by promoting phosphorylation and nuclear translocation, literature (13); cited from earlier work
A375 cells = assay: Proliferation assay (crystal violet) in A375 melanoma cells; assay type: cell-based, human
Experimental: B16/F10 melanoma cells, SKMel 28 and A375 cells were obtained from the ATCC (Manassas, Va., USA). Mel Juso cells are a generous gift from Dr. Hornyak at the National Cancer Institute. A375, SK Mel 28 and B16 cells were grown at 37° C. under 5% CO2 in DMEM supplemented with 7% Fetal Bovine Serum (FBS) and penicillin (100 U/ml) and streptomycin (50 ug/ml). Mel Juso cells were grown at 37° C. under 5% CO2 in RPMI medium supplemented with 10% FBS and penicillin (100 U/ml) and streptomycin (50 ug/ml). Retinoic acid (10^−7M) and Prostaglandin D2 (0.5 ug/ml) were purchased from Sigma-Aldrich (St-Louis, Mo., USA).
The cells were transfected with a pBabe vector to give them a resistance to puromycin. At the same time, they were transfected with SOX9 cDNA or empty vector as control. Depending on the experiment, cells were also transfected the day after with SiRNA p21 or SiRNA Mock. After 10 to 15 d, the clones were fixed and stained with crystal violet. Proliferation was measured according to the optical density of the color.

PRAME = PRAME expression in melanoma cells (immunoprecipitation / immunoblotting); assay type: cell-based, human; details: A375 cells treated with PGD2 for 72 h
Experimental: (§2) SOX9 has been extensively studied in chondrocytes due to its key role for collagen II synthesis. […] First, S35 labeling was performed on A375 cells treated or not treated with PGD2 for 72 h. Proteins were then extracted and immunoprecipitated with SOX9 and PRAME antibodies (GAPDH was used as a control). SOX9 was increased after treatment with PGD2 whereas PRAME was decreased (FIG. 3B). […] A further proliferation assay with or without RA treatment, using PGD2 instead of the transfection with SOX9, was performed.
(§3) Cells were solubilized in M-PER® mammalian protein extraction reagent (Pierce Biotechnology, Rockford, Ill., USA) containing Protease Inhibitor cocktail (Roche, Mannheim, Germany). Protein concentrations of extracts were measured using the BCA protein assay kit (Pierce, Rockford, Ill., USA). Cell extracts (30 μg) were separated on SDS polyacrylamide gels (Invitrogen). After electrophoresis, proteins were transferred electrophoretically from the gels to Invitrolon PVDF transfer membranes (Invitrogen). […] Antigens were detected using ECL-plus Western Blotting Detection System (GE Healthcare). […]

SOX9 [3] = assay: SOX9 expression in A375 cells (S35 labeling and immunoprecipitation / immunoblotting); assay type: cell-based, human; details: A375 cells treated with PGD2 for 72 h
Experimental: as §2, §3

SOX9 [4] = assay: SOX9 mRNA expression in normal human melanocytes by RT-PCR; assay type: cell-based; details: n-MP NHM, 4 h after ASP treatment
From the text: Total RNA was reverse-transcribed using SuperScript III (Invitrogen). PCR reactions consisted of 25 cycles for β-actin and 35 cycles for SOX9 using Taq DNA polymerase (Invitrogen). PCR products for β-actin and SOX9 were 838 bp, and 288 bp, respectively, and were electrophoresed in parallel with DNA molecular mass markers (Invitrogen). Oligonucleotide primers used for PCR were based on mRNA sequences as follows: human SOX9 sense primer 5′-[…]-3′ (SEQ ID NO:5); human SOX9 antisense primer 5′-[…]-3′ (SEQ ID NO:6), β-actin sense primer 5′-[…]-3′ (SEQ ID NO:7); β-actin antisense primer 5′-[…]-3′ (SEQ ID NO:8). Each experiment was repeated at least in triplicate independently.

[5] = system: mouse melanocytes, melanoma cells, NHM; details: literature (38-40); cited from earlier work
[6] = NHM, 21 mJ/cm^2 UVB, pretreatment with H89

## αMSH
SOX9 [1]
  SOX9 regulation in human melanocytes: up-regulated

## Δ2-PGJ2
Melanoma cells
  proliferation of melanoma cells and other cancer cells: decrease the proliferation

## C=C[C@@]1(C)CC(=O)[C@]2(O)[C@@]3(C)[C@@H](O)CCC(C)(C)[C@@H]3[C@H](O)[C@H](OC(C)=O)[C@@]2(C)O1 [forskolin]
TYR promoter
  TYR promoter activity: no effect
DCT promoter
  DCT promoter activity: no effect

## CCCCC[C@H](O)/C=C/[C@H]1C(=O)C[C@H](O)[C@@H]1C/C=C\CCCC(=O)O [PGD2, prostaglandin D2]
SOX9 [2]
  SOX9 activity in chondrocytes: increase SOX9 activity
Melanoma cells
  proliferation of melanoma cells and other cancer cells: decrease the proliferation
A375 cells; PGD2 0.5 μg/μl alone
  proliferation of A375 cells: inhibited
PRAME
  PRAME expression: decreased
SOX9 [3]
  SOX9 expression: increased

## O=S(=O)(NCCNC/C=C/c1ccc(Br)cc1)c1cccc2cnccc12 [H89]
SOX9 [1]; [6]
  UVB-induced expression of SOX9: prevented the increased expression
  UVB-induced expression of SOX9 phosphorylated at serine 181: prevented the increased expression

## CC1=C(/C=C/C(C)=C/C=C/C(C)=C/C(=O)O)C(C)(C)CCC1 [RA, retinoic acid]
A375 cells; RA 10^−7 M alone
  proliferation of A375 cells: no effect

B1: ASP: recombinant mouse protein, antagonist of the melanocortin I receptor (MC1R) (protein, UniProt Q03288 23-131, looked up)
Agouti-signaling protein: HLALEETLGDDRSLRSNSSMNSLDFSSVSIVALNKKSKKISRKEAEKRKRSSKKKASMKKVARPPPPSPCVATRDSCKPPAPACCDPCASCQCRFFGSACTCRVLNPNC
SOX9 [4]
  expression level of SOX9 (RT-PCR): decreased
[5]
  melanin formation: inhibits melanin formation
SOX9 [1]; n-MP NHM treated 48 h with ASP
  SOX9 expression (immunoblotting): significantly decreased
SOX9 [1]
  SOX9 regulation in human melanocytes: down-regulated
